Tests used:
Schwann cells = experiment: cDNA-array analysis of Schwann cell gene expression; format: cell-based, Sprague-Dawley rats
Experimental: To generate primary Schwann cells, neonatal Sprague-Dawley rats were sacrificed by decapitation, and 2-cm segments (approximately) of sciatic nerve were excised and placed in ice-cold PBS. Following removal of the epineurium, the nerves were pooled and placed in Hank's balanced salt solution containing 0.1% trypsin for 30 min at 37° C. Subsequently, partially-dissociated cells were plated onto polylysine/laminin-coated tissue culture plates, and enriched Schwann cells were further purified by the activation of anti-Thy 1.1 monoclonal antibodies and complement, in order to lyse proliferating fibroblasts (Wu and Weinstein, “Isolation and Purification of Primary Schwann Cells”, in Current Protocols in Neuroscience, Crawley et al., eds. (New York, N.Y.: John Wiley & Sons, 1999). The Schwann cells were maintained in DMEM containing 10% FCS supplemented with 50 ng/ml GGF and 2 μg/ml forskolin. However, these latter compounds were removed 48 h prior to the addition of immunophilin ligands. For the Schwann cell/PC12 co-cultures, monolayers of Schwann cells were prepared and overlaid with pCX-expressing PC12 cells, and cultures were incubated in the presence of either 100 ng/ml NGF or 1 μg/ml GM-284 for 48 h.
To test the former hypothesis, the inventors starved Schwann cells of growth factor for 48 h, then treated the cells for either 4 h or 48 h with a 1-μM dose of GM-284. RNA was harvested from the treated cells and from control (vehicle-treated) Schwann cells, and then prepared for cDNA-array analysis. Experimental details of the preparation of the RNA, and the methods for conducting the hybridization, washing, and scanning, are posted at the following http website: //sequence.aecom.yu.edu/bioinf/funcgenomic.html.
Total RNA was isolated, and prepared for cDNA microarray analysis as described (Peng et al., Microarray analysis of global changes in gene expression during cardiac myocyte differentiation. Physiol. Genomics, 9(3):145-55, 2002).

[1] = test system: PC12 cells co-cultured on monolayers of Schwann cells; experiment: GFP-PC12 / Schwann cell co-culture neurite outgrowth; format: cell-based, Sprague-Dawley rats (Schwann cells); conditions: GM-284, 48 h
Experimental: Wild-type and TrkA-overexpressing PC12 cells (Hempstead et al., Overexpression of the trk tyrosine kinase rapidly accelerates nerve growth factor-induced differentiation. Neuron, 9:883-96, 1992) were maintained in DMEM supplemented with 10% calf serum and 5% horse serum, the latter of which was also supplemented with 200 μg/ml G418 to maintain TrkA selection. Cultures were treated with 100 ng/ml NGF or the immunophilin ligands, or treated with Schwann-cell-conditioned medium supplemented with 5% horse serum, as indicated below. To generate GFP-expressing PC12 cells, a bicistronic pCX-bsr retroviral vector (Escalante et al., Phosphorylation of c-Crk II on the negative regulatory Tyr222 mediates nerve growth factor-induced cell spreading and morphogenesis. J. Biol. Chem., 275:24787-797, 2000), which drives expression of green fluorescent protein (GFP), was used to infect dividing PC12 cells.
GFP-expressing virus was produced by lipofectamine-mediated transfection of 1.0 μg of pCX-bsr DNA, together with 1.0 μg of pC-Eco retroviral DNA, into the Bosc23 replication-incompetent ecotropic packaging line (Retromax™, Imgen), according to the manufacturer's protocols. The transfection medium was replaced with 10 ml of DMEM containing 10% fetal calf serum, for 24 h, and then collected and frozen at −70° C. The cells were re-fed with fresh DMEM (10 ml), and maintained for an additional 16 h. […]

CCC(C)(C)C(=O)C(=O)N1CCC[C@H]1c1nnc([C@@H]2CCCN2C(=O)C(=O)C(C)(C)CC)o1 [GM-284]
ESTs upregulated (Schwann cells; 1 μM GM-284, 4 hours): 15 | Known genes upregulated (Schwann cells; 1 μM GM-284, 4 hours): 11 | Selected upregulated genes (Schwann cells; 1 μM GM-284, 4 hours): Cytokeratin 19 and Fibrillin 2 (fbn2) and IFNγ inducible and CD14 and Estradiol dehydrogenase | Total upregulated genes (Schwann cells; 1 μM GM-284, 4 hours): 26 | ESTs upregulated (Schwann cells; 1 μM GM-284, 48 hours): 77 | Known genes upregulated (Schwann cells; 1 μM GM-284, 48 hours): 32 | Total upregulated genes (Schwann cells; 1 μM GM-284, 48 hours): 109 | neuritogenesis of PC12 cells co-cultured with Schwann cells [1]: extensive neuritogenesis

— patent US20040266811A1, “Methods for inducing regeneration, remyelination, and hypermyelination of nervous tissue” (priority 2002, published 2004)
